Experimental data: patent publication EP2605769B1, “BENZOQUINONE DERIVATIVES FOR THE TREATMENT OF MITCHONDRIAL EYE DISEASES” (Santhera Pharmaceuticals (Schweiz) AG, priority 2010, dated 2012)
Marks after values point to notes of the source that are not given here.

How the values were obtained:
C57BL/6J mice [1] = assay: Mouse model of intravitreal rotenone injection, histopathological analyses of retinal degeneration, first study; type: in vivo; conditions: ± SEM; for Gliosis: GFAP immunostaining RFU; for Gliosis / Retinal thickness: 7 days post-injection; for Glutamine-synthetase: GS immunostaining RFU; for Glutamine-synthetase / RGC number: 1 day post-injection
Source text: This mouse model is used to assess the therapeutic potential of compounds in eye disorders characterized by mitochondrial dysfunction such as LHON, DOA, macular degeneration, retinopathy, and complex I deficiency. It is a widely accepted in vivo model based on single-eye intravitreal injection of the mitochondrial complex I inhibitor rotenone in the adult mouse. Intravitreal injection of rotenone induces neurotoxicity through mitochondrial complex I dysfunction in the retina which is the main molecular dysfunction […]. […] Histological analysis includes quantitative measurement of the retinal thickness (whole retina and individual layers), RGC apoptosis and cell death, oxidative stress, glutamine synthetase expression, and gliosis. The non-injected eye is used as a within subject, i.e. intraindividual, control. Male wild-type C57BL/6J mice (7 weeks old, about 25 g body weight) are individually housed in Makrolon type II cages with standard bedding and free access to food and water under a regular 12-hours light-dark cycle (8 a.m. to 8 p.m.). […] The injection is performed over a period of 2 min and the needle is kept in place for an additional 3 min, after which it is gently removed. Sterile surgical glue (Histoacryl, BRAUN/Aesculap AG, Germany) is used to seal the site of injection and a sterile antimicrobial ophtalmic ointment (Neosporin, GlaxoSmithKline, UK) is applied to the injected eye to avoid any infection. […] The eye balls are removed, retinas are dissected, fixed for an additional 2 h at 4°C, incubated in PB 0.1 M and 30% sucrose overnight, frozen in optimal cutting temperature compound (O.C.T., Tissue-Tek, Miles Laboratories, Elkhart, IN, USA), sliced at 14 µm, and collected onto glass slides for immunostaining. Immunostaining is performed accordingly to conventional method using multiple primary antibodies. Fluorescent-conjugated secondary antibodies and DAPI are used for visualization under a fluorescence microscope. All procedures are performed in accordance with the Swiss regulation and under a license approved by the "Kantonales Veterinäramt Basel-Land". Results: […] Table 5 In Table 5, the histological data are expressed as % of sham (DMSO) injected control ± SEM. […] IA 400 means a pretreatment with Compound IA at 400 mg/kg, similarily IA 2000 means a pretreatment with Compound IA at 2000 mg/kg. Statistical significance relative to vehicle + rotenone group is p ≤ 0.05 (*), p ≤ 0.01 (**). n is the number of retinas per group.

[2] = rats, cited from earlier work
[3] = Literature plasma and brain levels after oral dosing (Torii et al., Nagai et al.); type: in vivo; conditions: rats, oral 10 mg/kg
Description: Beyond the high first-pass effect, a further drawback of compounds of formula (I), and again exemplified with compound IA as a representative for this compound class, is the fact, that these compounds are reaching the brain only in very limited amounts when given orally. For example, it is known from the literature (Torii H, Yoshida K, Kobayashi T, Tsukamoto T, Tanayama S. J Pharmacobiodyn. 1985 Jun;8(6):457-67) that an oral dose of 10 mg/kg of idebenone (compound IA) in rats leads to plasma levels of approximately 1000 ng/ml of total idebenone as measured by radioactivity after oral dosing of radioactive labeled compound IA. The total concentration means idebenone including its metabolites. […] The corresponding levels in the brain are 10 ng/ml of total idebenone (which again means including the metabolites), resulting in only 0.03 ng/ml for parent idebenone itself. As a result, the ratio of brain vs plasma levels is about 1%. This is in line with the findings of Nagai et al (Nagai Y, Yoshida K, Narumi S, Tanayama S, Nagaoka A. Brain distribution of idebenone and its effect on local cerebral glucose utilization in rats. Arch Gerontol Geriatr. 1989;8(3):257-72), where higher oral doses of idebenone (100 mg/kg) are leading to similar low brain- to-plasma ratio of 1-2% in rats.

C57BL/6J mice [4] = assay: Optomotor testing of visual acuity in the rotenone mouse model; type: in vivo; conditions: for Number of counterclockwise head movements/ 2 min / Number of clockwise head movements/ 2 min: 5 weeks after injection, ± SEM; for Number of counterclockwise head movements/ 2 min: non-injected eye; for Number of clockwise head movements/ 2 min: rotenone-injected eye; for Number of head movements: 2000 mg/kg in diet, mean ± SEM
Description: Since RGC loss is associated with visual acuity impairment, we tested whether the neuroprotective effect of the test compound IA also correlated with recovery of visual function. For this purpose, visual acuity was detected by quantifying the optomotor response of animals subjected to the test system described above. The optomotor response was measured as previously described (see […]., et al. Vis. Res., 2005). Mice were placed on a central platform surrounded by a motorized drum with black and white vertical stripes that can rotate in both, clockwise and counterclockwise, direction at different velocities (which can be adjusted to evoke the optimal optokinetic response), and under constant light levels. Mice were allowed to habituate for 5 min to the experimental conditions before stripes were rotated alternately clockwise and counterclockwise, for 2 min in each direction and with an interval of 30 s between the two rotations. The mice were recorded on a computer using a digital video camera mounted above the apparatus to subsequently score the number of head movements by manual counting. Head movements were scored only when the angular speed of the head turn corresponds to that of the drum rotation. After aquisition and encoding by an investigator, a second, blinded investigator conducted all assessments. Codes were broken upon completion of data acquisition by a third investigator. Each mouse was tested at different time points and the apparatus will be cleaned between mice. Data will be presented as mean ± SEM. Paired Student's t-test and analysis of variance (ANOVA) will be used to compare non-normalized data. Statistical significance will be set at p≤0.05(*), p≤0.01(**) and p≤0.001 (***). Table 7: Effect of idebenone pre-treatment on visual acuity in an in vivo mouse model for LHON. Quantification of mouse visual acuity based on the optomotor response in mice pre-treated for 3 weeks with vehicle and idebenone 2000 mg/kg in diet. […] The optomotor response was examined in both clockwise (a) and counterclockwise (b) directions of motion, clockwise and counterclockwise tracking head movements reflecting visual acuity of the rotenone-injected (left) and non-injected (right) eye, respectively.

[5] = 400 mg/kg pretreatment 3 weeks + rotenone
[6] = 2000 mg/kg pretreatment 3 weeks + rotenone
[7] = oral dose of 10 mg/kg, Torii et al.
[8] = correction factor calculated from Torii et al

COC1=C(OC)C(=O)C(CCCCCCCCCCO)=C(C)C1=O [Compound IA, Idebenone]
Gliosis (C57BL/6J mice [1]; 400 mg/kg + rotenone): 112.7 ± 11.9 * (n=3) % of sham (DMSO) injected control
Glutamine-synthetase (C57BL/6J mice [1]; 400 mg/kg + rotenone): 98.5 ± 1.9 (n=5) % of sham (DMSO) injected control
RGC number (C57BL/6J mice [1]; [5]): 94.6 ± 3.2 ** (n=3) % of sham (DMSO) injected control
Retinal thickness (C57BL/6J mice [1]; [5]): 84.3 ± 2.9 ** (n=3) % of sham (DMSO) injected control
Gliosis (C57BL/6J mice [1]; 2000 mg/kg + rotenone): 134.7 ± 10.7* (n=3) % of sham (DMSO) injected control
Glutamine-synthetase (C57BL/6J mice [1]; 2000 mg/kg + rotenone): 99 ± 2.9 * (n=6) % of sham (DMSO) injected control
RGC number (C57BL/6J mice [1]; [6]): 101.3 ± 11.3 (n=3) % of sham (DMSO) injected control
Retinal thickness (C57BL/6J mice [1]; [6]): 76.9 ± 10.1 (n=4) % of sham (DMSO) injected control
brain- to-plasma ratio ([2]; oral 100 mg/kg, Nagai et al): 1-2%
levels in the brain of total idebenone (including metabolites) [2, 7]: 10 ng/mL
plasma levels of total idebenone (including metabolites, by radioactivity) [2, 7]: approximately 1000 ng/ml
Kp ([3]; rat, brain / plasma, read-out: ratio of brain vs plasma levels): ~0.01
idebenone plasma levels (unmetabolized parent) [3, 8]: 3 ng/mL
levels in the brain of parent idebenone [3, 8]: 0.03 ng/mL
Number of counterclockwise head movements/ 2 min (C57BL/6J mice [4]; 2000 mg/kg + rotenone 1 mM): 12.5 ± 4.5 head movements/2 min
Number of clockwise head movements/ 2 min (C57BL/6J mice [4]; 2000 mg/kg + rotenone 1 mM): 9 ± 2 head movements/2 min
Number of counterclockwise head movements/ 2 min (C57BL/6J mice [4]; 2000 mg/kg + rotenone 5 mM): 10.5 ± 0.6 head movements/2 min
Number of clockwise head movements/ 2 min (C57BL/6J mice [4]; 2000 mg/kg + rotenone 5 mM): 3.5 ± 1.5 head movements/2 min
Number of head movements (C57BL/6J mice [4]; time post-injection 1 day): 0 ± 0 (n=7) head movements/2 min
Number of head movements (C57BL/6J mice [4]; time post-injection 7 days): 0.5 ± 0.5 (n=7) head movements/2 min
Number of head movements (C57BL/6J mice [4]; time post-injection 14 days): 1.8 ± 0.8 (n=7) head movements/2 min
Number of head movements (C57BL/6J mice [4]; time post-injection 21 days): 2.8 ± 1.4 (n=7) head movements/2 min
Number of head movements (C57BL/6J mice [4]; time post-injection 28 days): 2.8 ± 1.4 (n=7) head movements/2 min
Number of head movements (C57BL/6J mice [4]; time post-injection 35 days): 3.5 ± 1.5 (n=7) head movements/2 min
Number of head movements (C57BL/6J mice [4]; time post-injection 56 days): 6 ± 2.1 (n=4) head movements/2 min
Number of head movements (C57BL/6J mice [4]; time post-injection -7 days): 9.7 ± 0.7 (n=7) head movements/2 min
